The values that follow come from US20090075983A1 (priority 2006, published 2009).

By pIC50 is commonly meant −log10 of the IC50, conventionally taken in molar units. As a reminder, the melting point is the temperature, or range, at which the solid turns liquid.

The target in data set [1] is T1, α7-subtype of nicotinic receptors (Rattus norvegicus, UniProt Q05941).
T1 construct: Cerebral cortices from male Wistar rats (150-250 g) are homogenised; from tissue; host or cells: rat cerebral cortex membrane homogenate
Description: biochemical. The note with it: read-out: Inhibition of 3H-α-Bungarotoxine Binding IC50.

The structures appear in SMILES notation. pIC50: −log10 of the molar value.

T1 sequence (Q05941 23-502): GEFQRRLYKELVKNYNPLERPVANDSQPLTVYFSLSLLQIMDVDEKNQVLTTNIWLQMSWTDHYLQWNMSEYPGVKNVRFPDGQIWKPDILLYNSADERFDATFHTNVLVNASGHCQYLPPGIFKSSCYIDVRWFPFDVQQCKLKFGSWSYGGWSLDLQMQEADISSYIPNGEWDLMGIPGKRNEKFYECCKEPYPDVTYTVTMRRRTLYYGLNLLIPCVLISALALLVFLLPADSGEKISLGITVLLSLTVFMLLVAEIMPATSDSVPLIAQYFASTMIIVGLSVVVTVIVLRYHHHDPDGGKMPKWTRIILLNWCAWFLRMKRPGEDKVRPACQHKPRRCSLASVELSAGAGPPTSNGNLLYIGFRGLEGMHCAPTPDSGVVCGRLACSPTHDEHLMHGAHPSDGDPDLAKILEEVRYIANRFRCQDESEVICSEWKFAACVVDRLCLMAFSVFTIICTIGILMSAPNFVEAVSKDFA

Consider `Cl.O=C(Nc1ccc(OC(=O)N2CCN3CCC2CC3)cc1)c1ccccc1` [Compound C1, 1,4-Diaza-bicyclo[3.2.2]nonane-4-carboxylic acid 4-benzoylamino-phenyl ester hydrochloric acid salt], for which the melting point was > 270 °C. Besides, the pIC50 in data set [1] was 6.25.

`O=C(O)/C=C/C(=O)O.O=C(Oc1ccc(C#Cc2ccccc2)cc1)N1CCN2CCC1CC2` [Compound A1, 1,4-Diaza-bicyclo[3.2.2]nonane-4-carboxylic acid 4-phenylethynyl-phenyl ester fumaric acid salt]: the melting point was in the range of 160 to 177 °C. For the same compound, in data set [1], the pIC50 was 6.38.
